Data published in US20260240842A1, “METHODS TO PREVENT THERAPY RESISTANCE IN MELANOMA VIA BLOCKING GENOMIC INSTABILITY” (THE REGENTS OF THE UNIVERSITY OF CALIFORNIA, priority 2022, published 2026).

Tested on: human BRAF^V600MUT (M229, M249, M395) or NRAS^Q61MUT (M202, M207, M245) melanoma cell lines
Test: Long-term clonogenic growth: emergence of acquired MAPKi-resistant colonies (DTPPs) in parental melanoma cell lines under MAPKi
Assay type: cell-based
Settings: for efficacy of co-treatment during the second half of the MAPKi treatment course: M229 (day 14-28) and M245 (day 15-30); for suppression of resistance with delayed co-treatment: M229 and M245, 3- to 3.5-week delay in co-treatment, FIGS. 4R and 4S; for sensitivity of M249 parental cell line to resistance suppression: M249, FIG. 4D; for prevention of DTPP formation / suppression of acquired MAPKi resistance: in combination with MAPKi (BRAFi+MEKi or MEKi), parental cell lines, FIG. 4
Procedure: FIGS. 4A-4U. DNA-PKi and/or PARPi co-treatment prevents acquired MAPKi-resistance in human melanoma cell lines. FIGS. 4A to 4O: Long-term clonogenic growth of isogenic parental and acquired MAPKi-resistant BRAF^V600MUT (4A to 4H) or NRAS^Q61MUT (4I to 4O) human melanoma cell lines showing acquired-resistant colonies to BRAFi+MEKi (PLX4032 at 0.5 mM, AZD6244 at 0.5 mM in 4A and 4G; PLX4032 at 0.25 mM, AZD6244 at 0.25 mM in 4D; PLX4032 at 1 mM, AZD6244 at 1 mM in 4B, 4C, 4E, 4F and 4H) or MEKi (trametinib at 0.005 mM in I and 0.01 mM in 4J and 4N; trametinib at 0.1 mM in 4K, 4M and 4O) and their suppression by indicated co-treatments with DNA-PKi (NU7026) and/or PARPi (ABT888) at indicated concentrations. Top, representative cultures; bottom, quantifications over n=4 fields (mean±SD). Data representative of 2 to 4 independent repeats. Seeding densities (cells/well in 6-well dishes) and culture durations (days): (4A) 5,000; 31, (4B) 1,000; 17, (4C) 5,000; 18, (4D) 40,000; 40, (4E) 5,000; 14, (4F) 5,000; 12, (4G) 20,000; 30, (4H) 20,000; 21, (4I) 40,000; 30, (4J) 50,000; 31, (4K) 5,000; 17, (4L) 5,000; 22, (4M) 5,000; 16, (4N) 20.000; 16, and (4O) 5,000; 16. Data representative of 2 to 4 independent repeats. FIGS. 4P and 4Q: Western blot, MTT assay (upper), and clonogenic growth assay (lower) of M245 cells transduced by lentivirus harboring shVector control or shRNAs of PRKDC (4P) or LIG4 (4Q). TUBULIN, loading control. Clonogenic growth with vehicle (14 days, 5,000 cells/well in 6-well dishes) or MEKi (29 days, 50,000 cells/well in 6-well dishes) treatments. MEKi, trametinib at 0.01 μM. Representative results of two independent experiments; quantification of n=4 fields (mean±SD). FIGS. 4R and 4S: As in 4A and 4J, respectively, except DNA-PKi and/or PARPi co-treatments were performed in M229 (4R) and M245 (4S) at a later stage of MAPKi treatment (see timepoint schema). Inhibitor concentrations for M229: BRAFi+MEKi (PLX4032 at 0.5 μM, AZD6244 at 0.5 μM), NU7026 (8 μM), ABT888 (4 μM) and NU7026+ABT888 (4 μM+4 μM). Inhibitor concentrations for M245: MEKi (trametinib at 0.01 μM), NU7026 (5 μM), ABT888 (1 μM) and NU7026+ABT888 (5 μM+1 μM). Left, representative cultures; right, quantifications over n=4 fields (mean±SD). Data representative of 2 independent repeats. FIGS. 4T and 4U: As in 4A and 4J, respectively, except DNA-PKi and/or PARPi co-treatments were performed in M229 (4T) and M245 cells (4U) at the same concentrations in R and S for the entire durations (day 1-28 in 4T; day 1-30 in 4U), the first half (day 1-14 in T; day 1-15 in 4U) or the second half (day 14-28 in 4T: day 15-30 in 4U) of the total treatment course. Top, representative cultures; bottom, quantifications over n=4 fields (mean±SD). Data representative of 2 independent repeats. P values (one-way ANOVA followed by Tukey's multiple comparison test) comparing indicated cultures versus MAPKi-only cultures (4A to 4O and 4R to 4U) or shVector culture (4P and 4Q): *, p<0.05; **, p<0.01: ***, p<0.001.
FIGS. 12A-12F. DNA-PKi and/or PARPi co-treatment prevents acquired MAPKi-resistance in human melanoma cell lines. FIGS. 12A to 12F: Long-term clonogenic growth of BRAF^V600MUT (12A, 12C and 12E) or NRAS^Q61MUT (12B, 12D and 12F) cell lines showing acquired-resistant colonies to BRAFi+MEKi (PLX4032 at 0.5 mM, AZD6244 at 0.5 mM for M229 and M395; PLX4032 at 0.25 mM, AZD6244 at 0.25 mM for M249) or MEKi (trametinib at 0.005 mM for M202 and 0.01 mM for M207 and M245) and their suppression by indicated co-treatments with DNA-PKi (VX984 in 12A and 12B; AZD7648 in 12C and 12D) and/or PARPi (olaparib in 12E and 12F) at indicated concentrations. Top, representative cultures; bottom, quantifications over n=4 fields (mean±SD). Data representative of 2 independent repeats. Seeding densities (cells/well in 6-well dishes) and culture durations (days): M202 (40,000, 30), M207 (20,000, 16), M229 (5,000, 32), M245 (50,000, 31), M249 (40,000, 40), and M395 (20,000, 30). […]

SMILES	efficacy of co-treatment during the second half of the MAPKi treatment course (FIGS. 4T and 4U)	suppression of resistance with delayed co-treatment	sensitivity of M249 parental cell line to resistance suppression	prevention of DTPP formation / suppression of acquired MAPKi resistance	efficacy of co-treatment during the first half of the MAPKi treatment course (M229 (day 1-14) and M245 (day 1-15), FIGS. 4T and 4U)	prevention of DTPP formation / suppression of acquired MAPKi resistance (listed as DNA-PKi)
C[C@]1(c2nc3c(C(N)=O)cccc3[nH]2)CCCN1 [ABT888, veliparib]	completely lost	reduced the suppression of resistance	highly sensitive to resistance suppression	activity in 3 of 6 parental cell lines	–	–
O=c1cc(N2CCOCC2)oc2c1ccc1ccccc12 [NU7026]	partially remititive	reduced the suppression of resistance	highly sensitive to resistance suppression	synergistically and dose-dependently prevented DTPP formation in all parental cell lines tested	remititive	generally more effective than PARPi in preventing acquired resistance
